In ChEMBL document CHEMBL1201862, “PubChem BioAssay data set” (2004):
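1) Cells in 96-well plates. 2) Compound, 48 h, 5 concentrations. 3) Linear interpolation between surrounding doses. 4) Unreached endpoint = highest concentration. At the GI50, growth is halved.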 The source made the active and inactive calls. No stated cut-off is given here; in the data, active = GI50 up to about 1.1 µM and inactive = higher.

Tests used:
Experiment in all cases: growth of human tumour cells (NCI), 48 h
786-0 = test system: 786-0
A498 = test system: A498
A549 = test system: A549
ACHN = test system: ACHN
BT-549 = test system: BT-549
CAKI-1 = test system: CAKI-1
CCRF-CEM = test system: CCRF-CEM
COLO 205 = test system: COLO 205
DU-145 = test system: DU-145
EKVX = test system: EKVX
HCC 2998 = test system: HCC 2998
HCT-116 = test system: HCT-116
HCT-15 = test system: HCT-15
HL-60 = test system: HL-60
HOP-62 = test system: HOP-62
HT-29 = test system: HT-29
Hs-578T = test system: Hs-578T
IGROV-1 = test system: IGROV-1
K562 = test system: K562
KM12 = test system: KM12
LOX IMVI = test system: LOX IMVI
M14 = test system: M14
MCF7 = test system: MCF7
MDA-MB-231 = test system: MDA-MB-231
MDA-MB-435 = test system: MDA-MB-435
MDA-N = test system: MDA-N
MOLT-4 = test system: MOLT-4
Malme-3M = test system: Malme-3M
NCI-H226 = test system: NCI-H226
NCI-H23 = test system: NCI-H23
NCI-H460 = test system: NCI-H460
NCI-H522 = test system: NCI-H522
NCI/ADR-RES = test system: NCI/ADR-RES
OVCAR-3 = test system: OVCAR-3
OVCAR-4 = test system: OVCAR-4
OVCAR-5 = test system: OVCAR-5
OVCAR-8 = test system: OVCAR-8
PC-3 = test system: PC-3
RPMI-8226 = test system: RPMI-8226
RXF 393 = test system: RXF 393
SF-268 = test system: SF-268
SF-295 = test system: SF-295
SF-539 = test system: SF-539
SK-MEL-2 = test system: SK-MEL-2
SK-MEL-5 = test system: SK-MEL-5
SK-OV-3 = test system: SK-OV-3
SN12C = test system: SN12C
SNB-19 = test system: SNB-19
SNB-75 = test system: SNB-75
SR = test system: SR
SW-620 = test system: SW-620
TK-10 = test system: TK-10
U-251 = test system: U-251
UACC-257 = test system: UACC-257
UACC-62 = test system: UACC-62
UO-31 = test system: UO-31
HOP-92 = test system: HOP-92
SK-MEL-28 = test system: SK-MEL-28

Measured: GI50

CC(=O)O[C@H]1C(=O)[C@@]2(C)[C@H]([C@H](OC(=O)c3ccco3)[C@]3(O)C[C@H](OC(=O)[C@H](O)[C@@H](NC(=O)c4ccccc4)c4ccccc4)C(C)=C1C3(C)C)[C@]1(OC(C)=O)CO[C@@H]1C[C@@H]2O
15.1 µM: HCT-15
inactive: 786-0 1.16 µM | A498 3.81 µM | ACHN 7.98 µM | BT-549 2.81 µM | CAKI-1 14.3 µM | EKVX > 8.79 µM | MDA-MB-231 4.58 µM | NCI/ADR-RES > 25 µM | OVCAR-4 > 22.4 µM | SF-295 1.45 µM | TK-10 8.41 µM | UO-31 > 18.3 µM
active: A549 0.518 µM | CCRF-CEM 0.05 µM | COLO 205 0.114 µM | DU-145 0.676 µM | HCC 2998 0.296 µM | HCT-116 0.059 µM | HL-60 0.0227 µM | HOP-62 0.676 µM | HT-29 0.0393 µM | Hs-578T 0.0608 µM | IGROV-1 0.251 µM | K562 0.078 µM | KM12 0.0834 µM | LOX IMVI 0.129 µM | M14 0.421 µM | MCF7 0.034 µM | MDA-MB-435 0.0165 µM | MDA-N 0.0127 µM | MOLT-4 0.114 µM | Malme-3M 0.119 µM | NCI-H226 0.429 µM | NCI-H23 0.412 µM | NCI-H460 0.164 µM | NCI-H522 0.309 µM | OVCAR-3 0.0612 µM | OVCAR-5 0.333 µM | OVCAR-8 0.273 µM | PC-3 0.12 µM | RPMI-8226 0.0189 µM | RXF 393 0.681 µM | SF-268 0.185 µM | SF-539 0.0356 µM | SK-MEL-2 0.0594 µM | SK-MEL-5 0.116 µM | SK-OV-3 0.287 µM | SN12C 0.308 µM | SNB-19 0.344 µM | SNB-75 0.134 µM | SR 0.0809 µM | SW-620 0.146 µM | U-251 0.125 µM | UACC-257 0.42 µM | UACC-62 0.277 µM

Cc1cccc(/C=C2\CCCc3ccccc3C2=O)c1
inactive: 786-0 32.1 µM | A549 24.2 µM | ACHN 26.5 µM | BT-549 24.3 µM | CAKI-1 30.4 µM | CCRF-CEM 13.7 µM | COLO 205 18.9 µM | DU-145 28.6 µM | EKVX 20.6 µM | HCT-116 15 µM | HL-60 12.1 µM | HOP-62 28.8 µM | HOP-92 15 µM | HT-29 18.5 µM | Hs-578T 15.8 µM | IGROV-1 21.6 µM | K562 18 µM | KM12 13.4 µM | LOX IMVI 19.3 µM | M14 17.9 µM | MCF7 16.9 µM | MDA-MB-231 18.5 µM | MDA-MB-435 17 µM | MDA-N 19.8 µM | MOLT-4 16.9 µM | Malme-3M 18.1 µM | NCI-H226 20.6 µM | NCI-H23 25.4 µM | NCI-H460 16.8 µM | NCI-H522 12.7 µM | NCI/ADR-RES 22.4 µM | OVCAR-3 26.3 µM | OVCAR-4 19.1 µM | OVCAR-5 15 µM | OVCAR-8 19.1 µM | PC-3 27.2 µM | RPMI-8226 8.2 µM | SF-268 15.2 µM | SF-295 19.5 µM | SF-539 18.7 µM | SK-MEL-28 23.8 µM | SK-MEL-2 16.7 µM | SK-OV-3 62.4 µM | SN12C 17.9 µM | SNB-19 24.4 µM | SNB-75 42.2 µM | SR 15 µM | SW-620 16.8 µM | TK-10 27.4 µM | U-251 18.6 µM | UACC-257 21.6 µM | UACC-62 14 µM | UO-31 26.8 µM
18.7 µM: HCT-15
